Source: patent US9540356B2 (priority 2012, dated 2017)

What was measured:
[1] = system: retrograde transport of Shiga toxin subunit B (StxB); type: cell-based
HeLa cells [2] = type: cell-based, human
HeLa cells [3] = assay: cells; type: cell-based; conditions: Homo sapiens

Q: Which “retrograde transport, % control” value [1] does the source give for CN1c2ccccc2C(=O)N(c2ccccc2)C1c1ccc(-c2ccco2)s1 (stereo not drawn) [Compound 40, 2-(5-(Furan-2-yl)thiophen-2-yl)-1-methyl-3-phenyl-2,3-dihydroquinazolin-4(1H)-one] here?
A: 5.3%

Q: What about the “R (Stx), protective index” value (HeLa cells [2]) of the same molecule?
A: 27

Q: What about the IC50 (HeLa cells [3]) of the same molecule?
A: 1500 nM
